In patent EP1656941A1, “Compositions for the treatment of diabetic nephropathy” (Clinigene International Private Limited, priority 2004, dated 2006):

Columns and labels:
[1] = system: patients with type 1 diabetes mellitus and diabetic nephropathy; conditions: Lewis et. al. 1993; cited from earlier work
[2] = system: patients with diabetic nephropathy; assay: 24-hour urine protein (proteinuria), Pyrogallol Red / SDS reagent method; open-labeled, randomized three-arm study; assay type: in vivo, human; design: 24h Urine protein (Mean) / Difference 24h Urine protein: unit not given here
Description: The study of the effect of MMF and lisinopril for the treatment of diabetic nephropathy was designed in the following manner.
In this study, a total of 30 patients were planned of which 18 were randomized and subjected to enter into one of the studies in which the patient groups each received MMF alone, lisinopril alone, or a combination of both MMF and lisinopril.
The primary end-point for this study was the proteinuria value obtained from the patients via 24-hour urine protein which was measured using the Calorimetric method Pyrogallol Red / SDS liquid stable single reagent.
The inclusion of a patient is based on the following criteria. Type 1 and type 2 diabetic patients; male and postmenopausal (Natural & surgical) female diabetic patients; age 18-65 years; micral test positive (albumin excretion rate 20-200 µgm/min); patient must be able to swallow the oral medications to be used in the study; patient must sign an informed consent prior to the study.
The exclusion of a subject from the study is based on the following criteria: Premenopausal female patients of any age; clinical evidence of SLE; uncontrolled diabetes (Fasting Blood Glucose≥ 160 mg/dl or HbA1c ≥ 7.5%); uncontrolled hypertension (Systolic blood pressure ≥ 160 mm Hg and/or diastolic blood pressure ≥ 100 mm Hg); impaired renal function with serum creatinine ≥ 1.4 mg/dl; well-documented history of Henoch-Schonlein Purpura (with an exception to previous nonspecific abdominal pain or rash ― which is not an exclusion criteria); clinical evidence of cirrhosis or chronic active liver disease; abnormal laboratory values at the time of study entry; absolute neutrophil count (ANC) < […], or hematocrit (HCT) < 28%; AER > 200 µgm/min; BUN ≥ 25 mg/dl; known contraindication or allergy to the administration of MMF or lisinopril; history of significant gastrointestinal disorder, e.g. severe chronic diarrhea or active peptic ulcer disease; active systemic infection or history of serious infection within one month of entry; known infection with HIV, hepatitis B or hepatitis C; other major organ system disease or malignancy other than skin cancer fully excised more than 5 years prior to entry; current or prior treatment with MMF or azathioprine; current or recent (within 30 days) exposure to any investigational drug.
(§1) Evaluation of the effects of MMF or ACE inhibitors alone or in combination on the status of proteinuria in patients with diabetic nephropathy was an open-labeled, randomized study. This study consisted of three arms as shown below. • 1. treatment with MMF alone • 2. treatment with combination of MMF and lisinopril • 3. treatment with lisinopril alone In addition, there were three phases of the study as shown below.
Phase 1: Screening Phase (Duration 1 to 4 weeks): 303 patients were screened on their first visit (V1), based on the given inclusion and exclusion criteria to determine if they were eligible for the study and to assess likelihood of compliance with study protocol. Micral test for every patient was done to determine the eligibility.
(§2) Phase 2: Treatment Phase (6 months): Every patient who qualified the screening phase was assigned one of the treatment arms. During this phase, patients were monitored closely and efficacy and safety parameters are assessed every month.
• 1. MMF: The dose of MMF given during the study was 500 mg per oral twice a day throughout the study. • 2. Lisinopril: The starting dose of lisinopril given in the study was 5 mg per oral twice a day. In case of hypertensive patients, the dose could be titrated upwards based on investigator's discretion, which in turn was based on the patient's "safety end point". • 3. MMF + Lisinopril: In the patients who received both the drugs, the dose of MMF was 500 mg per oral twice a day and lisinopril was 5 mg per oral twice a day. […]

[3] = system: patients with diabetic nephropathy; assay: Estimated GFR by the Cockcroft - Gault formula; open-labeled, randomized three-arm study; assay type: in vivo, human
Protocol: A secondary end-point for this study was the GFR value obtained for each patient. This Secondary Endpoint included Estimated GFR, which was calculated using the following formulae: […]
Measurement of GFR Once all data was collected, Glomerular Filtration Rate GFR) was determined by the Cockcroft - Gault formula.
Estimated GFR(inml/min) = ([140−age(in years)∗weight(in Kg))/(Serum Creatinie level(inμmol/L)) [formula]
Estimated GFR(inml/min) = (1.23∗[140−age(in years)∗weight(in Kg))/(Serum Creatinie level(inμmol/L)) [formula]
as §1, §2
• 1. MMF: The dose of MMF given during the study was 500 mg per oral twice a day throughout the study. • 2. Lisinopril: The starting dose of lisinopril given in the study was 5 mg per oral twice a day. In case of hypertensive patients, the dose could be titrated upwards based on investigator's discretion, which in turn was based on the patient's "safety end point". • 3. MMF + Lisinopril: In the patients who received both the drugs, the dose of MMF was 500 mg per oral twice a day and lisinopril was 5 mg per oral twice a day. In the case of hypertensive patients, the dose of lisinopril could be titrated upwards based on investigator's discretion, which in turn was based on the patient's "safety end point".

[4] = system: patients with IgA nephropathy; conditions: MMF 1-1.5g per day vs 30-40 mg of Prednisone per day; followed for seventy two weeks; preliminary report; cited from earlier work
Diabetic rats = conditions: Utimura et. al. 2003, cited from earlier work
[5] = Benefited patients, 1 month after treatment at V3, MMF 500 mg per oral twice a day
[6] = Benefited patients, 3 month after treatment at V4, MMF 500 mg twice daily
[7] = Benefited patients, V3 (1 month) versus baseline V2, MMF 500 mg per oral twice a day
[8] = Benefited patients, V4 (3 month) versus baseline V2, MMF 500 mg twice daily
[9] = Not benefited patients, 1 month after treatment at V3, MMF 500 mg per oral twice a day
[10] = Not benefited patients, 3 month after treatment at V4, MMF 500 mg twice daily
[11] = Not benefited patients, V3 (1 month) versus baseline V2, MMF 500 mg per oral twice a day
[12] = Benefited patients, 1 month after treatment at V3, lisinopril 5mg twice daily
[13] = Benefited patients, 3 month after treatment at V4, lisinopril 5mg twice daily
[14] = Benefited patients, 6 month after treatment at V5, lisinopril 5mg twice daily
[15] = Benefited patients, V3 (1 month) versus baseline V2, lisinopril 5mg twice daily
[16] = Benefited patients, V4 (3 month) versus baseline V2, lisinopril 5mg twice daily
[17] = Benefited patients, V5 (6 month) versus baseline V2, lisinopril 5mg twice daily
[18] = Not benefited patients, 1 month after treatment at V3, lisinopril 5mg twice daily
[19] = Not benefited patients, 3 month after treatment at V4, lisinopril 5mg twice daily
[20] = Not benefited patients, 6 month after treatment at V5, lisinopril 5mg twice daily
[21] = Not benefited patients, V3 (1 month) versus baseline V2, lisinopril 5mg twice daily
[22] = Not benefited patients, V4 (3 month) versus baseline V2, lisinopril 5mg twice daily
[23] = Not benefited patients, V5 (6 month) versus baseline V2, lisinopril 5mg twice daily

SMILES: C[C@H](CS)C(=O)N1CCC[C@H]1C(=O)O [Captopril]
- progression of renal disease [1]: prevents or delays

SMILES: COc1c(C)c2c(c(O)c1C/C=C(\C)CCC(=O)OCCN1CCOCC1)C(=O)OC2 [MMF, mycophenolate mofetil]
- 24h Urine protein (Mean) [2, 5]: 112.73
- 24h Urine protein (Mean) [2, 6]: 260.8
- Difference 24h Urine protein [2, 7]: -203.93
- Difference 24h Urine protein [2, 8]: -136.6
- 24h Urine protein (Mean) [2, 9]: 696.3
- 24h Urine protein (Mean) [2, 10]: 305.5
- Difference 24h Urine protein [2, 11]: 361.7
- reduced proteinuria in % of the patients ([2]; after 1 month of treatment (V3 vs V2), MMF 500 mg per oral twice a day): 67%
- reduced proteinuria in % of the patients ([2]; at V4 at the end of 3 months, 500 mg of MMF twice daily): 67%
- GFR (Mean) [3, 5]: 89.3 mL/min
- GFR (Mean) [3, 6]: 81.85 mL/min
- Difference GFR [3, 7]: 0.27 mL/min
- Difference GFR [3, 8]: -1.35 mL/min
- GFR (Mean) [3, 9]: 75.26 mL/min
- GFR (Mean) [3, 10]: 49.9 mL/min
- Difference GFR [3, 11]: 4.40 mL/min
- Difference GFR ([3]; Not benefited patients, V4 (3 month) versus baseline V2, MMF 500 mg twice daily): 49.9 mL/min
- decreasing proteinuria, protecting renal function and also decreasing blood lipid levels [4]: superior to Prednisone
- albuminuria, glomerular macrophage infiltration and glomerulosclerosis (Diabetic rats; 8 months): prevent
- effect on blood pressure, glomerular dynamics or blood glucose levels (Diabetic rats): no effect

SMILES: NCCCC[C@H](N[C@@H](CCc1ccccc1)C(=O)O)C(=O)N1CCC[C@H]1C(=O)O [lisinopril]
- 24h Urine protein (Mean) [2, 12]: 236.66
- 24h Urine protein (Mean) [2, 13]: 161.15
- 24h Urine protein (Mean) [2, 14]: 248.4
- Difference 24h Urine protein [2, 15]: -133.6
- Difference 24h Urine protein [2, 16]: -268.75
- Difference 24h Urine protein [2, 17]: -239.6
- 24h Urine protein (Mean) [2, 18]: 211.25
- 24h Urine protein (Mean) [2, 19]: 289.2
- 24h Urine protein (Mean) [2, 20]: 626
- Difference 24h Urine protein [2, 21]: 53.73
- Difference 24h Urine protein [2, 22]: 101.47
- Difference 24h Urine protein [2, 23]: 254.2
- reduced proteinuria in % of the patients ([2]; at the end of 1 month (V3 vs V2), 5mg of lisinopril twice daily): 42%
- reduced proteinuria in % of the patients ([2]; at the end of 3 month (V4 vs V2), 5mg of lisinopril twice daily): 40%
- reduced proteinuria in % of the patients ([2]; at the end of 6 month (V5 vs V2), 5mg of lisinopril twice daily): 50%
- GFR (Mean) [3, 12]: 79.16 mL/min
- GFR (Mean) [3, 13]: 89.55 mL/min
- GFR (Mean) [3, 14]: 105.9 mL/min
- Difference GFR [3, 15]: -0.09 mL/min
- Difference GFR [3, 16]: 7.95 mL/min
- Difference GFR [3, 17]: 28.5 mL/min
- GFR (Mean) [3, 18]: 63.97 mL/min
- GFR (Mean) [3, 19]: 68.76 mL/min
- GFR (Mean) [3, 20]: 76.4 mL/min
- Difference GFR [3, 21]: 1.91 mL/min
- Difference GFR [3, 22]: 0.13 mL/min
- Difference GFR [3, 23]: -9.4 mL/min
